# Laboratory results taken from paper PMC12402003 (Frontiers in Nutrition, 2025).
# Columns and labels:
# Caco-2 cell monolayers = assay: Bidirectional transport across Caco-2 cell monolayer; assay type: in vitro ADME, human; conditions: 50 μmol/L, no inhibitor
# Procedure: The cells were seeded at a density of approximately 10^5 cells/cm^2 on TranswellTM filter (Corning Inc., Lowell, MA) and cultured for 21 d before use. Cell monolayer integrity was controlled by the measurement of trans-epithelial electrical resistance (TEER) with an EVOM epithelial voltammeter equipped with an electrode (World Precision Instruments, Sarasota, FL, United States). […] (a) R(%)=CBL×VBL/CAP×VAP×100 In this, R represents the absorption rate (as a percentage); CBL is the anthocyanin concentration of the BL side (in μM); VBL is the volume of anthocyanins from the BL (in L); CAP is the initial anthocyanin concentration of the AP side (in μM), and VAP is the volume of anthocyanins in the AP chamber (in L). The absorption rate of anthocyanins from BL to AP is calculated using the following Equation b: (b) R(%)=CAP×VAP/CBL×VBL×100 In this, R represents the absorption rate (as a percentage); CAP is the anthocyanin concentration from the AP side (in μM); VAP is the volume of anthocyanins in the AP chamber (in mL); CBL is the initial concentration from the BL side (in μM) and VBL is the volume of anthocyanins in the BL chamber (in L).
# HepG2 cells = assay: TG and TC content in OA-induced high-fat HepG2 cells; assay type: cell-based, human; conditions: 1 mM OA high-fat model vs control group
# Procedure: For high fat HepG2 model: […] Afterwards, cells were harvested and lysed. […] For TG and TC assay: […] The medium was removed and the cells were washed twice with PBS. The levels of triglycerides (TG) and total cholesterol (TC) in the cells were determined according to the instructions of test kits.
# Fasn = assay: Western blot of Fasn protein in Caco-2/HepG2 co-culture; assay type: cell-based, human; conditions: 1 mM OA vs. control, p < 0.01
# Procedure: Cells from the co-culture model were lysed and supernatants were collected. The protein concentrations were determined using the BCA Protein Quantitation Kit. Then electrophoresis of samples was conducted using a SDS-PAGE kit (Beyotime Biotechnology) following the manufacturer’s instructions and transferred to poly-vinylidene difluoride (PVDF) membrane. Next, membranes were incubated in 5% nonfat milk to block non-specific antibody binding for 30 min at room temperature and followed by incubating with primary antibodies and secondary antibodies. Chemiluminescence based-images of the blots were acquired using ImageQuant LAS 500 system (GE, United States). Protein bands were quantified using ImageJ (version 1.53a) software. The changes in expression levels of these proteins detected finally are used to evaluate the sample’s effect on lipid metabolism.
compound,measurement,setting,value
"O=C1OC2(c3ccc(O)cc3Oc3cc(O)ccc32)c2ccccc21 [Fluorescin, Fluorescein, reference compound]",ER (efflux rate),Caco-2 cell monolayers; 30 min,0.56
same,Papp (AP → BL),Caco-2 cell monolayers; 30 min,5.75 ± 0.17 ×10^−5 cm /s
same,ER (efflux rate),Caco-2 cell monolayers; 60 min,0.34
same,Papp (AP → BL),Caco-2 cell monolayers; 60 min,5.07 ± 1.72 ×10^−5 cm /s
same,ER (efflux rate),Caco-2 cell monolayers; 90 min,0.3
same,Papp (AP → BL),Caco-2 cell monolayers; 90 min,4.59 ± 2.21 ×10^−5 cm /s
same,ER (efflux rate),Caco-2 cell monolayers; 120 min,0.27
same,Papp (AP → BL),Caco-2 cell monolayers; 120 min,4.6 ± 2.63 ×10^−5 cm /s
same,ER (efflux rate),Caco-2 cell monolayers; 150 min,0.25
same,Papp (AP → BL),Caco-2 cell monolayers; 150 min,4.65 ± 2.94 ×10^−5 cm /s
"CCCCCCCC/C=C\CCCCCCCC(=O)O [OA, Oleic acid]",increase of TC level,HepG2 cells,12%
same,increase of TG level,HepG2 cells,22%
same,Fasn protein expression level,Fasn,1.59 ± 0.16 fold
